The record followed here is PubChem BioAssay AID256 (DTP/NCI, 2004).

For this assay, the system named is CD2F1 mice, L1210 leukemia ip, survival T/C. The assay is described as follows: NCI In Vivo Anticancer Drug Screen. Data for tumor model L1210 Leukemia (intraperitoneal) in CD2F1 (CDF1) mice. To be noted: higher = longer survival. A digest of the protocol: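 Compound-dosed mice with transplantable tumor versus matched vehicle controls; endpoint ratio T/C reported.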

Where [1] appears, read: endpoint: mean survival time, dose: 100.0 mg/kg/injection, schedule: Q01DX001 (ip), vehicle: saline with Tween-80.
Setting [2] is: endpoint: mean survival time, dose: 200.0 mg/kg/injection, schedule: Q01DX001 (ip), vehicle: saline with Tween-80.
Setting [3] is: endpoint: mean survival time, dose: 400.0 mg/kg/injection, schedule: Q01DX001 (ip), vehicle: saline with Tween-80.
The mark [4] stands for this setting: endpoint: mean survival time, dose: 100.0 mg/kg/injection, schedule: Q04DX002 (ip), vehicle: Klucel (hydroxypropylcellulose) (HPC).
The mark [5] stands for this setting: endpoint: mean survival time, dose: 200.0 mg/kg/injection, schedule: Q04DX002 (ip), vehicle: Klucel (hydroxypropylcellulose) (HPC).
[6] abbreviates: endpoint: mean survival time, dose: 100.0 mg/kg/injection, schedule: Q01DX009 (ip), vehicle: saline with Tween-80.
Where [7] appears, read: endpoint: mean survival time, dose: 200.0 mg/kg/injection, schedule: Q01DX009 (ip), vehicle: saline with Tween-80.
The mark [8] stands for this setting: endpoint: mean survival time, dose: 400.0 mg/kg/injection, schedule: Q01DX009 (ip), vehicle: saline with Tween-80.

“And” between values parts separate entries of the source, which are not always exact repeats. Identical values can stand only once. Inconclusive results and toxic doses are left out.

For the molecule `FC(F)(F)/C([S-])=C(/[S-])C(F)(F)F.N#[O+].[Mn].[c-]1[c-][c-][cH-][c-]1`, the T/C (endpoint: mean survival time, dose: 75.0 mg/kg/injection, schedule: Q01DX001 (ip), vehicle: other) is 103 % of control.

In the case of `C1N2CN3CN1CN(C2)C3.[Cl][Pt]([Cl])[Cl]`, the T/C is, setting by setting: (endpoint: mean survival time, dose: 3.13 mg/kg/injection, schedule: Q04DX003 (ip), vehicle: distilled water + Tween-80) 103 % of control; (endpoint: mean survival time, dose: 6.25 mg/kg/injection, schedule: Q04DX003 (ip), vehicle: distilled water + Tween-80) 108 % of control; (endpoint: mean survival time, dose: 12.5 mg/kg/injection, schedule: Q04DX003 (ip), vehicle: distilled water + Tween-80) 109 % of control; (endpoint: mean survival time, dose: 25.0 mg/kg/injection, schedule: Q04DX003 (ip), vehicle: distilled water + Tween-80) 108 % of control; (endpoint: mean survival time, dose: 50.0 mg/kg/injection, schedule: Q04DX003 (ip), vehicle: distilled water + Tween-80) 115 % of control.

For the molecule `COC1=C(C)C(=O)c2c(c(COC(N)=O)c3n2CCC3OC(N)=O)C1=O` (stereo unspecified), the T/C was 108 % of control (endpoint: mean survival time, dose: 1.25 mg/kg/injection, schedule: Q01DX001 (ip), vehicle: distilled water + Tween-80); 114 % of control (endpoint: mean survival time, dose: 1.5 mg/kg/injection, schedule: Q01DX001 (ip), vehicle: distilled water + Tween-80); 120 % of control (endpoint: mean survival time, dose: 2.5 mg/kg/injection, schedule: Q01DX001 (ip), vehicle: distilled water + Tween-80); 118 % of control (endpoint: mean survival time, dose: 3.0 mg/kg/injection, schedule: Q01DX001 (ip), vehicle: distilled water + Tween-80); 117 % of control (endpoint: mean survival time, dose: 5.0 mg/kg/injection, schedule: Q01DX001 (ip), vehicle: distilled water + Tween-80); 116 % of control (endpoint: mean survival time, dose: 6.0 mg/kg/injection, schedule: Q01DX001 (ip), vehicle: distilled water + Tween-80). The T/C is 115 % of control (endpoint: mean survival time, dose: 10.0 mg/kg/injection, schedule: Q01DX001 (ip), vehicle: distilled water + Tween-80) and 122 % of control (endpoint: mean survival time, dose: 12.0 mg/kg/injection, schedule: Q01DX001 (ip), vehicle: distilled water + Tween-80).

In the case of `CC1C[C@@H](O)C(NC(=O)N(CCCl)N=O)[C@@H](O)C1` (stereo partly specified), the T/C (endpoint: mean survival time, dose: 6.0 mg/kg/injection, schedule: Q01DX001 (ip), vehicle: saline) was 191 % of control; the T/C (endpoint: mean survival time, dose: 9.0 mg/kg/injection, schedule: Q01DX001 (ip), vehicle: saline) was 367 % of control; the T/C (endpoint: mean survival time, dose: 13.0 mg/kg/injection, schedule: Q01DX001 (ip), vehicle: saline) was 297 % of control; the T/C (endpoint: mean survival time, dose: 20.0 mg/kg/injection, schedule: Q01DX001 (ip), vehicle: saline) is 500 % of control; the T/C (endpoint: mean survival time, dose: 30.0 mg/kg/injection, schedule: Q01DX001 (ip), vehicle: saline) is 298 % of control.

Regarding `C[NH-].C[NH-].[Cl][Pt+2][Cl]`, the T/C is 91 % of control (endpoint: mean survival time, dose: 2.5 mg/kg/injection, schedule: Q04DX003 (ip), vehicle: water); 120 % of control (endpoint: mean survival time, dose: 5.0 mg/kg/injection, schedule: Q04DX003 (ip), vehicle: water); 92 % of control (endpoint: mean survival time, dose: 10.0 mg/kg/injection, schedule: Q04DX003 (ip), vehicle: water).

In the case of `CC(=O)C1C(c2ccccc2)=C(c2ccccc2)c2ccccc21` (stereo unspecified), the T/C is 88 % of control under setting [1], 92 % of control under setting [2] and 92 % of control under setting [3].

In the case of `C[C@]12C=CC(=O)C=C1CC[C@@H]1[C@@H]2CC[C@]2(C)OC(=O)CC[C@@H]12`, the T/C reads like this: (endpoint: median survival time, dose: 125.0 mg/kg/injection, schedule: Q01DX009 (sc), vehicle: steriod suspending solution) 97 % of control; (endpoint: median survival time, dose: 125.0 mg/kg/injection, schedule: Q## X009 (sc), vehicle: steriod suspending solution) 97 % of control; (endpoint: median survival time, dose: 250.0 mg/kg/injection, schedule: Q01DX009 (sc), vehicle: steriod suspending solution) 104 % of control; (endpoint: median survival time, dose: 250.0 mg/kg/injection, schedule: Q## X009 (sc), vehicle: steriod suspending solution) 104 % of control; (endpoint: median survival time, dose: 500.0 mg/kg/injection, schedule: Q01DX009 (sc), vehicle: steriod suspending solution) 102 % of control; (endpoint: median survival time, dose: 500.0 mg/kg/injection, schedule: Q## X009 (sc), vehicle: steriod suspending solution) 102 % of control. The T/C runs as follows: (endpoint: median survival time, dose: 1000.0 mg/kg/injection, schedule: Q01DX009 (sc), vehicle: steriod suspending solution) 102 % of control; (endpoint: median survival time, dose: 1000.0 mg/kg/injection, schedule: Q## X009 (sc), vehicle: steriod suspending solution) 102 % of control.

As to `Nc1nnc(C(F)(F)F)s1`, the T/C under setting [4] is 101 % of control; the T/C under setting [5] was 101 % of control; the T/C (endpoint: mean survival time, dose: 400.0 mg/kg/injection, schedule: Q04DX002 (ip), vehicle: Klucel (hydroxypropylcellulose) (HPC)) is 108 % of control.

In the case of `C[n+]1ccccc1CCc1cccc[n+]1C`, the T/C by setting is: (endpoint: mean survival time, dose: 50.0 mg/kg/injection, schedule: Q01DX009 (ip), vehicle: saline) 100 % of control; (endpoint: mean survival time, dose: 100.0 mg/kg/injection, schedule: Q01DX009 (ip), vehicle: saline) 100 % of control; (endpoint: mean survival time, dose: 200.0 mg/kg/injection, schedule: Q01DX009 (ip), vehicle: saline) 104 % of control.

On to `Cc1cc(NC(=O)NC/C(Cl)=C/Cl)c2ccccc2n1`, for which the T/C by setting is: under setting [1], 93 % of control; under setting [2], 93 % of control; under setting [3], 98 % of control.

On to `Cn1c(=O)c2c(ncn2C)n(C)c1=O`, for which the T/C by setting is: (endpoint: mean survival time, dose: 128.0 mg/kg/injection, schedule: Q11HX001 (sc), vehicle: water) 94 % of control and 103 % of control; (endpoint: mean survival time, dose: 160.0 mg/kg/injection, schedule: Q11HX001 (sc), vehicle: water) 95 % of control and 98 % of control; (endpoint: mean survival time, dose: 200.0 mg/kg/injection, schedule: Q11HX001 (sc), vehicle: water) 96 % of control and 98 % of control; (endpoint: mean survival time, dose: 250.0 mg/kg/injection, schedule: Q11HX001 (sc), vehicle: water) 96 % of control and 98 % of control; (endpoint: median survival time, dose: 150.0 mg/kg/injection, schedule: Q01DX001 (ip), vehicle: water) 103 % of control; (endpoint: median survival time, dose: 150.0 mg/kg/injection, schedule: Q01DX001 (sc), vehicle: water) 102 % of control and 109 % of control. Further, the T/C is 104 % of control (endpoint: median survival time, dose: 200.0 mg/kg/injection, schedule: Q01DX001 (ip), vehicle: water); 104 % of control and 108 % of control (endpoint: median survival time, dose: 200.0 mg/kg/injection, schedule: Q01DX001 (sc), vehicle: water); 95 % of control and 107 % of control (endpoint: median survival time, dose: 250.0 mg/kg/injection, schedule: Q01DX001 (sc), vehicle: water).

As to `Cc1ccc(C(=O)Nc2ccccc2I)cc1`, the T/C under setting [6] is 97 % of control, the T/C under setting [7] is 101 % of control and the T/C under setting [8] is 97 % of control.

On to `O=C(O)c1sc(C(=O)O)c(-c2ccccc2)c1-c1ccccc1`, for which the T/C is 92 % of control (endpoint: mean survival time, dose: 100.0 mg/kg/injection, schedule: Q01DX009 (ip), vehicle: saline sonified); 90 % of control (endpoint: mean survival time, dose: 200.0 mg/kg/injection, schedule: Q01DX009 (ip), vehicle: saline sonified); 103 % of control (endpoint: mean survival time, dose: 400.0 mg/kg/injection, schedule: Q01DX009 (ip), vehicle: saline sonified).

Turning to `O=c1[nH]c(=O)n(C2CC(O)C(CO)O2)cc1/C=C/c1ccccc1` (stereo unspecified), the T/C was 97 % of control (endpoint: mean survival time, dose: 6.25 mg/kg/injection, schedule: Q01DX005 (ip), vehicle: distilled water + Tween-80); 103 % of control (endpoint: mean survival time, dose: 12.5 mg/kg/injection, schedule: Q01DX005 (ip), vehicle: distilled water + Tween-80); 95 % of control (endpoint: mean survival time, dose: 25.0 mg/kg/injection, schedule: Q01DX005 (ip), vehicle: distilled water + Tween-80); 95 % of control (endpoint: mean survival time, dose: 50.0 mg/kg/injection, schedule: Q01DX005 (ip), vehicle: distilled water + Tween-80); 96 % of control (endpoint: mean survival time, dose: 100.0 mg/kg/injection, schedule: Q01DX005 (ip), vehicle: distilled water + Tween-80).

On to `Cc1cc(Cl)nc(N)n1`, for which the T/C by setting is: under setting [4], 90 % of control; under setting [5], 86 % of control.

`O=C(CN1CCCCC1)NC(=O)NC1=C(N2CCCCC2)C(=O)c2ccccc2C1=O`: the T/C is 97 % of control (endpoint: mean survival time, dose: 100.0 mg/kg/injection, schedule: Q01DX001 (ip), vehicle: other); 101 % of control (endpoint: mean survival time, dose: 200.0 mg/kg/injection, schedule: Q01DX001 (ip), vehicle: other); 95 % of control (endpoint: mean survival time, dose: 400.0 mg/kg/injection, schedule: Q01DX001 (ip), vehicle: other).

In the case of `COB1OB(OC)OB(OC)O1`, the T/C was 90 % of control (endpoint: mean survival time, dose: 50.0 mg/kg/injection, schedule: Q01DX009 (ip), vehicle: saline with Tween-80); 93 % of control under setting [6]; 93 % of control under setting [7]; 93 % of control under setting [8].
